From patent publication US20220411362A1, “DITERPENOID COMPOUNDS THAT ACT ON PROTEIN KINASE C (PKC)” (K-Gen, Inc., priority 2019, published 2022)

Tests used:
C1b domain of human PKCθ = target: T1, C1b domain of human PKCθ (Homo sapiens, UniProt Q04759); assay: Competitive 3H-PDBu binding to C1b domain of PKCθ
T1 construct: Genes encoding C1b domains of human PKCα, δ, ε, θ, and PKD1 (PKCμ) were synthesized; made in house; host or cells: E. coli BL21(DE3)
T1 sequence (Q04759 231-281 limits assumed): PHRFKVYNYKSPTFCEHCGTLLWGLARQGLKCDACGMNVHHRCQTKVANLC
In short: (§1)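 Binding is reported as Ki, derived from IC50 using Cheng-Prusoff with the experimentally determined 3H-PDBu Kd of each protein preparation. Tracer displacement from recombinant human GST-C1b (E. coli BL21(DE3)) was read by filter scintillation after 10 min at 37° C plus 20 min on ice.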

[1] = system: phosphorylation of CaMKii at T286 in Panc1 cells; assay: CaMKii phosphorylation in Panc1 cell line (Western blot); assay type: cell-based; conditions: 0.02 μM and 0.1 M, 48 hours (FIG. 5)
Procedure: Panc1 (a pancreatic cancer cell line) cells (˜5-8 millions) were seeded in 10 cm dishes (or ˜2 millions in 6 cm dishes) and treated next day with prostratin (K-101, 0.2 μM and 1 μM) or 0.02 μM and […] of K101-C1347, -C134801, and -C134802 for 48 hours. Cells were then collected/lysed for Western blot analysis. Protein quantification, SDS-PAGE, and Western blot procedures were performed as described in Example 65, except that a different lysis buffer (1 ml of 10×TNE [20 mL 1M Tris pH7.5; 30 mL 5M NaCl; 2 mL 0.5M EDTA; 48 mL d2H2O], 1 ml of 10% NP40, 7.7 mL of dH2O, 100 μL of 10× Protease inhibitors, 100 μL of 10× Phosphatase inhibitors, and 10 μl DTT) was used. To assess the effect of diterpenoid compounds on CaMKii phosphorylation, a phospho-specific antibody P-CaMKii (T286) (Abcam, cat #32678) was used for detection. Phosphorylation of CaMKii at T286 is a marker for activation of CaMKii kinase in the Wnt/Ca^2+ signaling pathway when […] and thus a downstream marker for inhibition of K-Ras stemness (Wang et al., Cell. 2015, 163(5):1237-51).

C1b domain of human PKCε = target: T2, C1b domain of human PKCε (Homo sapiens, UniProt Q02156); assay: Competitive 3H-PDBu binding to C1b domain of PKCε
T2 construct: Genes encoding C1b domains of human PKCα, δ, ε, θ, and PKD1 (PKCμ) were synthesized; made in house; host or cells: E. coli BL21(DE3)
T2 sequence (Q02156 242-292 limits assumed): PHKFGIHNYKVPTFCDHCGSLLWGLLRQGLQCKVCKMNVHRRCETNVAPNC
In short: as §1

[2] = system: Mino (Lymphoma) cell line; assay: Proliferation of Mino; assay type: cell-based; conditions: for IC50: Homo sapiens, MINO, read-out: IC50 in μM Mino (Lymphoma); for ratio of (IC50 of K01)/(IC50 of compound), Mino: value in parenthesis
In short: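 Cells seeded at 800-1000 (KP-4), 5000 (HL-60) or 5000-10000 (Namalwa, Mino) per well, then treated with 3-fold serial dilutions (final DMSO ≤0.25%) for 96 h. Viability read by CellTiter Glo luminescence, % inhibition vs DMSO; IC50 normalised across batches as IC50 of comparator K01 / IC50 of compound.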

[3] = system: A549 non-small cell lung cancer cell line; assay: Proliferation of A549 (CellTiter Glo); assay type: cell-based; conditions: Homo sapiens, A549, 96 h, read-out: IC50 μM (A549 Cell Line)
In short: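 Luminescent CellTiter Glo read-out after 96 h compound exposure of A549 cells plated at 1,000/well and rested 24 h at 37° C; DMSO kept ≤0.25%, dilutions 3-fold. Inhibition taken relative to DMSO-treated wells; IC50, relative IC50 and top inhibition derived by curve fitting.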

Row | Compound | Ki (C1b domain of human PKCθ) [nM] | phosphorylation of CaMKii at T286 [1] | Ki (C1b domain of human PKCε) [nM] | IC50 [2] [µM] | ratio of (IC50 of K01)/(IC50 of compound), Mino [2] | IC50 [3] [µM]
1 | CC1=C[C@H]2[C@@]3(O)[C@H](C)C[C@]4(OC(=O)[C@@H](N)[C@]56C[C@H]7C[C@H](C[C@H](C7)C5)C6)[C@H]([C@@H]3C=C(CO)C[C@]2(O)C1=O)C4(C)C [Compound K101-C1347] | < 5 | induced phosphorylation of CaMKii at T286 | 5 to 10 | 0.001 to 0.01 | 52.2 | 0.001 to 0.01
2 | CC1=C[C@H]2[C@@]3(O)[C@H](C)C[C@]4(OC(=O)[C@H](N)CCCCCCc5ccccc5)[C@H]([C@@H]3C=C(CO)C[C@]2(O)C1=O)C4(C)C [Compound K101-C134801] | 1 to 30 | induced phosphorylation of CaMKii at T286 | 1 to 30 | 0.001 to 0.01 | 21.3 | 0.01 to 0.03
3 | CC1=C[C@H]2[C@@]3(O)[C@H](C)C[C@]4(OC(=O)[C@@H](N)CCCCCCc5ccccc5)[C@H]([C@@H]3C=C(CO)C[C@]2(O)C1=O)C4(C)C [Compound K101-C134802] | < 5 | induced phosphorylation of CaMKii at T286 | 1 to 30 | 0.001 to 0.01 | 52.2 | 0.001 to 0.01
4 | CC1=C[C@H]2[C@@]3(O)[C@H](C)C[C@]4(OC(=O)[C@@H](N)CC5CCCCC5)[C@H]([C@@H]3C=C(CO)C[C@]2(O)C1=O)C4(C)C [Compound K101-C1327] | 5 to 10 | – | 1 to 30 | 0.001 to 0.01 | 7.33 | 0.06 to 0.1
